Tests used:
MAGL [1] = biological target: T1, MAGL (Mus musculus (Mouse), UniProt O35678); assay: In vitro competitive activity-based protein profiling (mouse brain membrane fraction or cell lysates), MAGL band; type: biochemical; settings: mouse proteome; for inhibition at 1 µM: read-out: MAGL % Inh 1 μM (mouse); for IC50: competitive ABPP
Protocol: In Vitro Competitive Activity-Based Protein Profiling.
Proteomes (mouse brain membrane fraction or cell lysates) (50 μL, 1.0 mg/mL total protein concentration) were preincubated with varying concentrations of inhibitors at 37° C. After 30 min, FP—Rh (1.0 μL, 50 μM in DMSO) was added and the mixture was incubated for another 30 min at 37° C. Reactions were quenched with SDS loading buffer (50 μL-4×) and run on SDS-PAGE.

ABHD6 [2] = biological target: T2, ABHD6 (Mus musculus (Mouse), UniProt Q8R2Y0); assay: In vitro competitive activity-based protein profiling (mouse brain membrane fraction or cell lysates), ABHD6 band; type: biochemical; settings: mouse proteome; for inhibition at 1 µM: read-out: ABHD6 % Inh 1 μM (mouse); for IC50: competitive ABPP
T2 sequence (Q8R2Y0 whole entry): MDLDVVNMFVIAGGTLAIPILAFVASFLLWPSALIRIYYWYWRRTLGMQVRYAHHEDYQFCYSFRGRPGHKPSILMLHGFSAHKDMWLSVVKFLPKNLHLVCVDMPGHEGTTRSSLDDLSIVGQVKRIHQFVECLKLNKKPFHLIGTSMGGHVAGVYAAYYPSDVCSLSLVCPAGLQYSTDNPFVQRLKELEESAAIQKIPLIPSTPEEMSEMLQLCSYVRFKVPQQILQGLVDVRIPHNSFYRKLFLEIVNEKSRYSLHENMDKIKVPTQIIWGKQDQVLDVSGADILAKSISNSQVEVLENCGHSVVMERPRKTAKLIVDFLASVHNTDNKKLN
How it was run: (§1)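 Mouse proteome samples (brain membrane fraction or cell lysate, 1.0 mg/mL protein) were pretreated with varying inhibitor concentrations and subsequently probed with fluorophosphonate-rhodamine, each step lasting 30 min at 37° C. Labelled proteins were separated by SDS-PAGE, and band fluorescence was imaged and quantified.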

FAAH [3] = biological target: T3, FAAH (Mus musculus (Mouse), UniProt O08914); assay: In vitro competitive activity-based protein profiling (mouse brain membrane fraction or cell lysates), FAAH band; type: biochemical; settings: mouse proteome; for inhibition at 1 µM: read-out: FAAH % Inh 1 μM (mouse); for IC50: competitive ABPP
T3 sequence (O08914 whole entry): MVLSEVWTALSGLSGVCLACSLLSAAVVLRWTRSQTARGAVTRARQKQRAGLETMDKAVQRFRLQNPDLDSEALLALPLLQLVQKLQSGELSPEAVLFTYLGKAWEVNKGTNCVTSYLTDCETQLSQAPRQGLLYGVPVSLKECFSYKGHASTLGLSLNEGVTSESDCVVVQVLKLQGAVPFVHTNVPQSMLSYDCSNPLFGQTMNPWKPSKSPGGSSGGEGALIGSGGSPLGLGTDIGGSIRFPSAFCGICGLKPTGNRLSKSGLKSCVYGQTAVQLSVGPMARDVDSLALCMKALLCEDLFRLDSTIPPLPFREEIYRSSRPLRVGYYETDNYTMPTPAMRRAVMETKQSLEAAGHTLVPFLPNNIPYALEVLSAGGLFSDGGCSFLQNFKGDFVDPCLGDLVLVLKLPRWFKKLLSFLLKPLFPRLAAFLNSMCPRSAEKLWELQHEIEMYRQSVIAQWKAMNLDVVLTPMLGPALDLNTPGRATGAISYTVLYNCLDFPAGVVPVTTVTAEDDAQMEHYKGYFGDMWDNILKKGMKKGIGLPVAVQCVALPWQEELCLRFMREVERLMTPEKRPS
How it was run: as §1

MAGL [4] = biological target: T1, MAGL; assay: Mouse brain proteomes from inhibitor treated mice (oral gavage, sacrificed 4 h after administration, ABPP analysis); type: in vivo, mouse (C57Bl/6J); settings: 5 mg/kg oral gavage
How it was run: (§2)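 Wild-type C57Bl/6J mice were dosed by oral gavage in vehicle (e.g. PEG400/Ethanol/PBS 7/2/1) and sacrificed 4 h later. Brain proteomes were analysed by activity-based protein profiling; values are % inhibition at 5 mg/kg.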

FAAH [5] = biological target: T3, FAAH; assay: Mouse brain proteomes from inhibitor treated mice (oral gavage, sacrificed 4 h after administration, ABPP analysis), FAAH; type: in vivo, mouse (C57Bl/6J); settings: 5 mg/kg oral gavage
How it was run: as §2

ABHD6 [6] = biological target: T2, ABHD6; assay: Mouse brain proteomes from inhibitor treated mice (oral gavage, sacrificed 4 h after administration, ABPP analysis), ABHD6; type: in vivo, mouse (C57Bl/6J); settings: 5 mg/kg oral gavage
How it was run: as §2

T1 sequence (O35678 whole entry): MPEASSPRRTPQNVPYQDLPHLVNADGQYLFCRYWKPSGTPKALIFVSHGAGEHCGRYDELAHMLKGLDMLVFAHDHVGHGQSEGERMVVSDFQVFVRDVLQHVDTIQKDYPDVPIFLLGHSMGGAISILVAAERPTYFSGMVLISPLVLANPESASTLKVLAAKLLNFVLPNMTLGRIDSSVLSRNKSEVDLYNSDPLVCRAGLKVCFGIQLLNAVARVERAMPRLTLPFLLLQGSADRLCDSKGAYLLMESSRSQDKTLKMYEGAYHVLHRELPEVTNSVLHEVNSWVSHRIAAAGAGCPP

| Compound | inhibition at 1 µM (MAGL [1]) | IC50 (MAGL [1]) | inhibition at 1 µM (ABHD6 [2]) | IC50 (ABHD6 [2]) | inhibition at 1 µM (FAAH [3]) | IC50 (FAAH [3]) | MAGL % Inh 5 mg/kg (mouse) (MAGL [4]) | FAAH % Inh 5 mg/kg (mouse) (FAAH [5]) | ABHD6 % Inh 5 mg/kg (mouse) (ABHD6 [6]) |
| --- | --- | --- | --- | --- | --- | --- | --- | --- | --- |
| O=C(OC(C(F)(F)F)C(F)(F)F)N1CCC2(CCCN2Cc2ccc(Cl)cc2N2CCC2)CC1 [Example 107, 1,1,1,3,3,3-Hexafluoropropan-2-yl 1-(2-(azetidin-1-yl)-4-chlorobenzyl)-1,8-diazaspiro[4.5]decane-8-carboxylate] | > 75% | < 100 nM | < 25% | > 1000 nM | < 25% | > 1000 nM | ### (### is ≥75%) | ## (## is equal to or greater than 25% but less than 75%) | # (# is <25%) |
| O=C(OC(C(F)(F)F)C(F)(F)F)N1CCC2(CCCN2Cc2ccc(Cl)cc2N2CC3COCC3C2)CC1 (stereo not drawn) [Example 108, 1,1,1,3,3,3-Hexafluoropropan-2-yl 1-(4-chloro-2-(tetrahydro-1H-furo[3,4-c]pyrrol-5(3H)-yl)benzyl)-1,8-diazaspiro[4.5]decane-8-carboxylate] | > 75% | < 100 nM | < 25% | > 1000 nM | < 25% | > 1000 nM | ### (### is ≥75%) | # (# is <25%) | # (# is <25%) |
| Cc1cc(CN2CCCC23CCN(C(=O)OC(C(F)(F)F)C(F)(F)F)CC3)ccc1Cl [Example 124, 1,1,1,3,3,3-Hexafluoropropan-2-yl 1-(4-chloro-3-methylbenzyl)-1,8-diazaspiro[4.5]decane-8-carboxylate] | > 75% | < 100 nM | < 25% | > 1000 nM | < 25% | > 1000 nM | ### (### is ≥75%) | # (# is <25%) | # (# is <25%) |
| Cc1ccc(CN2CCCC23CCN(C(=O)OC(C(F)(F)F)C(F)(F)F)CC3)cc1Cl [Example 125, 1,1,1,3,3,3-Hexafluoropropan-2-yl 1-(3-chloro-4-methylbenzyl)-1,8-diazaspiro[4.5]decane-8-carboxylate] | > 75% | < 100 nM | < 25% | > 1000 nM | < 25% | > 1000 nM | ### (### is ≥75%) | # (# is <25%) | # (# is <25%) |
| O=C(OC(C(F)(F)F)C(F)(F)F)N1CCC2(CCCN2Cc2ccc(N3CCCC3)c(Cl)c2)CC1 [Example 128, 1,1,1,3,3,3-Hexafluoropropan-2-yl 1-(3-chloro-4-(pyrrolidin-1-yl)benzyl)-1,8-diazaspiro[4.5]decane-8-carboxylate] | > 75% | < 100 nM | < 25% | > 1000 nM | < 25% | > 1000 nM | ### (### is ≥75%) | # (# is <25%) | # (# is <25%) |
| O=C(OC(C(F)(F)F)C(F)(F)F)N1CCC2(CCCN2Cc2ccc(N3CCOCC3)c(C(F)(F)F)c2)CC1 [Example 129, 1,1,1,3,3,3-Hexafluoropropan-2-yl 1-(4-morpholino-3-(trifluoromethyl)benzyl)-1,8-diazaspiro[4.5]decane-8-carboxylate] | > 75% | < 100 nM | 25 to 75% | > 1000 nM | < 25% | > 1000 nM | ### (### is ≥75%) | # (# is <25%) | # (# is <25%) |
| O=C(OC(C(F)(F)F)C(F)(F)F)N1CCC2(CCCN2Cc2ccc(N3CCCC3)c(C(F)(F)F)c2)CC1 [Example 130, 1,1,1,3,3,3-Hexafluoropropan-2-yl 1-(4-(pyrrolidin-1-yl)-3-(trifluoromethyl)benzyl)-1,8-diazaspiro[4.5]decane-8-carboxylate] | > 75% | < 100 nM | 25 to 75% | > 1000 nM | < 25% | > 1000 nM | ### (### is ≥75%) | # (# is <25%) | # (# is <25%) |
| O=C(OC(C(F)(F)F)C(F)(F)F)N1CCC2(CCCN2Cc2ccc(Cl)c(N3CCCC3)c2)CC1 [Example 132, 1,1,1,3,3,3-Hexafluoropropan-2-yl 1-(4-chloro-3-(pyrrolidin-1-yl)benzyl)-1,8-diazaspiro[4.5]decane-8-carboxylate] | > 75% | < 100 nM | < 25% | > 1000 nM | < 25% | > 1000 nM | ### (### is ≥75%) | # (# is <25%) | # (# is <25%) |
| CS(=O)(=O)N1CCc2cccc(CN3CCCC34CCN(C(=O)OC(C(F)(F)F)C(F)(F)F)CC4)c2C1 [Example 146, 1,1,1,3,3,3-Hexafluoropropan-2-yl 1-((2-methanesulfonyl-1,2,3,4-tetrahydroisoquinolin-8-yl)methyl)-1,8-diazaspiro[4.5]decane-8-carboxylate] | > 75% | < 100 nM | 25 to 75% | > 1000 nM | < 25% | > 1000 nM | ### (### is ≥75%) | # (# is <25%) | ## (## is equal to or greater than 25% but less than 75%) |
| CCc1cc(CN2CCCC23CCN(C(=O)OC(C(F)(F)F)C(F)(F)F)CC3)ccc1F [Example 150, 1,1,1,3,3,3-Hexafluoropropan-2-yl 1-(3-ethyl-4-fluorobenzyl)-1,8-diazaspiro[4.5]decane-8-carboxylate] | > 75% | < 100 nM | < 25% | > 1000 nM | < 25% | > 1000 nM | ### (### is ≥75%) | # (# is <25%) | # (# is <25%) |
| O=C(OC(C(F)(F)F)C(F)(F)F)N1CCC2(CCCN2Cc2ccc3c(c2)COC3)CC1 [Example 151, 1,1,1,3,3,3-Hexafluoropropan-2-yl 1-((1,3-dihydroisobenzofuran-5-yl)methyl)-1,8-diazaspiro[4.5]decane-8-carboxylate] | > 75% | < 100 nM | < 25% | > 1000 nM | < 25% | > 1000 nM | ### (### is ≥75%) | ## (## is equal to or greater than 25% but less than 75%) | ## (## is equal to or greater than 25% but less than 75%) |
| CCc1cc(CN2CCC3(CCN(C(=O)OC(C(F)(F)F)C(F)(F)F)CC3)C2)ccc1F [Example 152, 1,1,1,3,3,3-Hexafluoropropan-2-yl 2-(3-ethyl-4-fluorobenzyl)-2,8-diazaspiro[4.5]decane-8-carboxylate] | > 75% | < 100 nM | ≥ 75% | 100 to 1000 nM | < 25% | > 1000 nM | ### (### is ≥75%) | # (# is <25%) | ### (### is ≥75%) |
| O=C(OC(C(F)(F)F)C(F)(F)F)N1CCC2(CCN(Cc3ccc(C(F)(F)F)c(N4CCCC4)c3)C2)CC1 [Example 157, 1,1,1,3,3,3-Hexafluoropropan-2-yl 2-(3-(pyrrolidin-1-yl)-4-(trifluoromethyl)benzyl)-2,8-diazaspiro[4.5]decane-8-carboxylate] | > 75% | < 100 nM | ≥ 75% | 100 to 1000 nM | < 25% | > 1000 nM | ### (### is ≥75%) | # (# is <25%) | ## (## is equal to or greater than 25% but less than 75%) |
| CN1CCC(Oc2cc(CN3CCCC34CCN(C(=O)OC(C(F)(F)F)C(F)(F)F)CC4)cc(C(F)(F)F)c2)CC1 [Example 166, 1,1,1,3,3,3-Hexafluoropropan-2-yl 1-(3-(1-methylpiperidin-4-yloxy)-5-(trifluoromethyl)benzyl)-1,8-diazaspiro[4.5]decane-8-carboxylate] | > 75% | < 100 nM | < 25% | > 1000 nM | < 25% | > 1000 nM | # (# is <25%) | # (# is <25%) | # (# is <25%) |
